This is an account of results in US12215067B2, “Chemical compounds targeting the eye and use thereof in the treatment of eye diseases” (BIOPHYTIS, priority 2019, dated 2025).

A short description of data set [1]: Pharmacokinetic study via oral administration in mice, ocular concentrations. The format is in vivo, mice C57BL/6. The note with it: for Eye Exposure 50 mg/kg p.o. AUC: Table 3, repeats the eye exposure of Table 2; for Tmax: C57BL/6, mouse, eye, po. On the procedure:
(§1) The pharmacokinetic study of the chemical compounds (C) following the oral administration thereof was conducted using mice C57BL/6 (January, 53940 The Genest Saint Isle, France). The chemical compounds derived from norbixin (C) were administered at a dose of 50 mg/kg of body weight. After administration, the blood was sampled at the tail at t=0.25 h; 0.5 h; 1 h; 3 h; 6 h and 8 h. The blood samples were centrifuged and the plasmas taken. The dosage of the plasma samples made it possible to determine pharmacokinetic parameters, namely Cmax, which corresponds to the maximum concentration observed after the administration of the molecule, Tmax which is the time required to reach maximum concentration after administration of the molecule and the AUC: the area under the curve which corresponds to the plasma exposure (FIG. 2).
In parallel, the ocular concentrations of the chemical compounds derived from norbixin (C) were dosed in the following way (FIG. 1): both eyes of each mouse were taken in Precellys tubes and stored at −80° C. until the time of dosing. The eyes are then ground in the Precellys tubes with a bench homogenizer, Fast-prep (Fischer Scientific, Hampton, United States) in a mixture of organic solvents, in a first step with 500 μL of chloroform/methanol (1/1, v/v) then 500 μL of chloroform/dichloromethane (1/1, v/v). The supernatants are recovered at each step and transferred to a 96-well plate of 2 mL.
For the quantification of the chemical compounds C, a calibration curve is carried out with 8 standards (5 to 5,000 ng/mL) in the same organic solvent mixtures and transferred (100 μL) to the 96-well plate of 2 mL.
The supernatants and standards are evaporated in a EZ2 (Genevac, Ipswich, United Kingdom), without heating, then taken with 100 μL of DMSO/methanol (20:80, v/v) before being transferred to a 96-well plate of 200 μL.
(§2) The LC-MSMS analysis is carried out with a HPLC 1200 Infinity chain (Agilent Technologies, Santa-Clara, United States), a UV detector and a mass spectrometer QQQ6420 (Agilent Technologies Santa-Clara, United States). The injection volume is 5 μL. The chemical compounds C are eluted on an inverse phase column C18 (2.1*50 mm, particles 3 μm; Ace-C18-Excel, AIT) with a gradient of acetonitrile and water (containing 0.1% formic acid) and a flow rate of 0.3 mL/min. The conditions of the gradient can change according to the chemical compound C analyzed. The UV detector analyzes at 460 nm and the mass spectrometer analyzed in Mode MRM—Positive.
(§3) Table 2 discloses the pharmacokinetic results of the chemical compounds C following the administration p.o. 50 mg/kg in D-α-Tocopheryl polyethylene glycol 1000 succinate (VitE-TPGS) 20% in a sodium bicarbonate buffer (0.1M).

Data set [2] concerns primary cultures of RPE of adult pigs. In words: In vitro photoprotection of RPE cells illuminated with blue light in the presence of A2E. The note with it: A2E 30 μM, survival 24 h after illumination; for viability at 5 µM / viability at 10 µM / viability at 20 µM: Sus scrofa, RPE. The format is cell-based, pig. From the text: In addition to better distribution in the target-tissue, selecting new compounds must also be based on good photo-protective activity that limits the loss of the cells of the RPE and thus reducing the retinal degeneration observed during the AMD and other degenerative diseases such as Retinitis pigmentosa and Stargardt's disease. At the cellular level, on cultures of cells the RPE coming from pig retina, Fontaine et al. (2016) have shown that a treatment with norbixin (BIO201) protects the cells of the RPE against apoptosis following an illumination in the presence of A2E (80% survival 24 h after exposure). This same screening test according to the percentage of photoprotection was used so as to determine its modulation by and the chemical compounds derived from norbixin (C) object of the present invention in comparison with the photo-protective effect of norbixin and characterize these modulations from a statical standpoint.
The test in vitro described hereinabove and intended to study the photo-protective effect of norbixin was used so as to quantify the photo-protective effects of the various chemical compounds derived from norbixin (C) on the cells of the RPE illuminated with blue light in the presence of A2E (FIG. 3). The photo-protective effect of the molecules was evaluated in a phototoxicity cellular model induced by treatment by A2E followed by an illumination with blue light. The term “blue radiation” means the radiation corresponding to the blue band of the visible light spectrum, i.e. of a wavelength comprised between 435 and 490 nm. This model uses primary cultures of RPE of adult pigs. The cell survival is quantified thanks to a test of cellular viability. At −48 h the compounds to be tested (in solution at 5 mM in the DMSO) are added to obtain the final concentrations of 1 to 20 μM) then at −19 h of the A2E (final concentration 30 μM) and the cells (time 0 h) are illuminated. 24 h after the survival of the cells is measured. The acquisition of images, as well as the processing thereof, are carried out using a fluorescence microscope controlled by the Metamorph software and a dedicated quantification program. The experiments are conducted on a 96-well microplate in quadruplicate and the experiment is reproduced at least four times. The results are expressed in the form of a ratio representing the number of living cells in the wells treated by the molecules to be tested, divided by the number of living cells in the controlled wells (treated by the dilution medium without A2E). This test made it possible hereinabove to reveal the photo-protective activity of norbixin (Fontaine et al. 2016).

Data set [3] can be described thus: Pharmacokinetic study via oral administration in mice, plasma concentrations. The format is in vivo, mice C57BL/6. As for the experimental part:
as §1, §2, §3

The test system of data set [4] is primary cultures of RPE of adult pigs. The note with it: 24 h after exposure; Fontaine et al. (2016); cited from earlier work.
Where [5] appears, read: mice, p.o. 50 mg/kg in VitE-TPGS 20% in sodium bicarbonate buffer (0.1M).
Setting [6] is: C57BL/6, mouse, in vivo, po, 50 mg/kg.

As to `CC(/C=C/C=C(C)/C=C/C(=O)O)=C\C=C\C=C(C)\C=C\C=C(C)\C=C\C(=O)O` [BIO201, 6,6′-diapocarotene-6,6′-dioate, reference compound], the “Eye Exposure 50 mg/kg p.o. AUC” value in data set [1] is given as 22.4 ng · h/eye. Besides, in data set [1] (setting [5]), the “Eye CMax” value was 8.6 ng/eye and the “Eye TMax” value came out at 0.5 h. The “Photoprotection (%) 5 μM Mean” value in data set [2] (5 μM compound) is 19.2%. For the same compound, the “Photoprotection (%) 10 μM Mean” value in data set [2] (10 μM compound) is 34.1%. Besides, the “Photoprotection (%) 20 μM Mean” value in data set [2] (20 μM compound) is reported as 63.6%. Further, in data set [3] (setting [5]), the “Plasma CMax” value amounted to 34.99 µg/mL and the “Plasma TMax” value came out at 0.25 h. Moreover, in data set [3] (mice, p.o. 50 mg/kg in VitE-TPGS 20% in sodium bicarbonate buffer (0.1M), area under the curve), the “Plasma Exposure” value is 100700 ng·h/mL. Also, in data set [4], the “survival of RPE cells after illumination in the presence of A2E” value is 80%.
As usually defined, the Tmax is the time at which the peak concentration occurs. One may read the viability as the share of living cells, or the viability signal relative to a control. A word on the Cmax: it is the highest concentration seen after dosing. As to `CC(=C/C=C/C(C)=C/C=C/C=C(C)/C=C/C=C(C)/C=C/C(=O)N[C@H]1CC[C@H](O)CC1)/C=C/C(=O)O` [C19, 1-[(E)-4-hydroxycyclohexamido](2E,4E,6E,8E,10E,12E,14E,16Z,18E)-4,8,13,17-tetramethylicosa-2,4,6,8,10,12,14,16,18-nonaenedioate], in data set [1] (setting [5]), the time to peak (Tmax) was 0.5 h and the “Eye CMax” value turned out to be 5.7 ng/eye. In addition, the “Eye Exposure 50 mg/kg p.o. AUC” value in data set [1] is 37.5 ng · h/eye. Also, the viability at 5 µM in data set [2] (5 μM compound) came to 60.6%. Also, the viability at 10 µM in data set [2] (10 μM compound) turned out to be 60.6%. In data set [2] (20 μM compound), the viability at 20 µM came out at 79.9%. For the same compound, in data set [3] (setting [6]), the concentration peaked (Cmax) at 6620 ng/mL, the “Plasma Exposure” value amounted to 22800 ng·h/mL and the Tmax worked out at 0.25 h.
Take `COC1CCCN(C(=O)/C=C/C(C)=C/C=C/C(C)=C/C=C/C=C(C)/C=C/C=C(C)\C=C\C(=O)O)C1` (stereo not shown) [C20, 1-[3-methoxypiperidinamido](2E,4E,6E,8E,10E,12E,14E,16Z,18E)-4,8,13,17-tetramethylicosa-2,4,6,8,10,12,14,16,18-nonaenedioate]: in data set [1] (setting [5]), the Tmax was found to be 2 h and the “Eye CMax” value was 80.4 ng/eye. In addition, the “Eye Exposure 50 mg/kg p.o. AUC” value in data set [1] is reported as 421.9 ng · h/eye. The viability at 5 µM in data set [2] (5 μM compound) came to 65.6%. The viability at 10 µM in data set [2] (10 μM compound) came out at 65.6%. Moreover, in data set [2] (20 μM compound), the viability at 20 µM was found to be 79%. In data set [3] (setting [6]), the peak level (Cmax) was 35000 ng/mL, the “Plasma Exposure” value was 160400 ng·h/mL and the Tmax was 1 h.
On to `CCCOC1CCN(C(=O)/C=C/C(C)=C/C=C/C(C)=C/C=C/C=C(C)/C=C/C=C(C)\C=C\C(=O)O)CC1` [C22, 1-[4-n-propoxypiperidinamido](2E,4E,6E,8E,10E,12E,14E,16Z,18E)-4,8,13,17-tetramethylicosa-2,4,6,8,10,12,14,16,18-nonaenedioate], for which, in data set [1] (setting [5]), the Tmax stood at 2 h and the “Eye CMax” value is on record as 42.1 ng/eye. The “Eye Exposure 50 mg/kg p.o. AUC” value in data set [1] stood at 358.5 ng · h/eye. The viability at 5 µM in data set [2] (5 μM compound) was found to be 64.5%. Also, the viability at 10 µM in data set [2] (10 μM compound) was determined as 72.8%. The viability at 20 µM in data set [2] (20 μM compound) came to 66%. In data set [3] (setting [6]), the concentration peaked (Cmax) at 12800 ng/mL, the “Plasma Exposure” value is 37250 ng·h/mL and the Tmax was 0.25 h.
Take `CCOCC1CCN(C(=O)/C=C/C(C)=C/C=C/C(C)=C/C=C/C=C(C)/C=C/C=C(C)\C=C\C(=O)O)CC1` [C23, 1-[4-ethylmethoxypiperidinamido](2E,4E,6E,8E,10E,12E,14E,16Z,18E)-4,8,13,17-tetramethylicosa-2,4,6,8,10,12,14,16,18-nonaenedioate]: in data set [1] (setting [5]), the Tmax stood at 2 h and the “Eye CMax” value is on record as 11 ng/eye. Besides, the “Eye Exposure 50 mg/kg p.o. AUC” value in data set [1] was found to be 54.7 ng · h/eye. The viability at 5 µM in data set [2] (5 μM compound) is 38.4%. Further, the viability at 10 µM in data set [2] (10 μM compound) stood at 59.2%. Besides, in data set [2] (20 μM compound), the viability at 20 µM turned out to be 73.1%. In addition, in data set [3] (setting [6]), the Cmax came to 5010 ng/mL, the “Plasma Exposure” value worked out at 24100 ng·h/mL and the time of peak concentration (Tmax) was found to be 1 h.
Turning to `COC1CCN(C(=O)/C=C/C(C)=C/C=C/C(C)=C/C=C/C=C(C)/C=C/C=C(C)\C=C\C(=O)O)CC1` [C24, 1-[4-methoxypiperidinamido](2E,4E,6E,8E,10E,12E,14E,16Z,18E)-4,8,13,17-tetramethylicosa-2,4,6,8,10,12,14,16,18-nonaenedioate], in data set [1] (setting [5]), the time to peak (Tmax) was 1.5 h and the “Eye CMax” value is listed as 96 ng/eye. The “Eye Exposure 50 mg/kg p.o. AUC” value in data set [1] turned out to be 499.1 ng · h/eye. For the same compound, the viability at 5 µM in data set [2] (5 μM compound) turned out to be 47%. Besides, the viability at 10 µM in data set [2] (10 μM compound) amounted to 69%. For the same compound, the viability at 20 µM in data set [2] (20 μM compound) is 84%. For the same compound, in data set [3] (setting [6]), the maximum concentration (Cmax) is 48300 ng/mL, the “Plasma Exposure” value came to 141900 ng·h/mL and the time of peak concentration (Tmax) came out at 0.5 h.
